BindingDB's records for doi:10.1016/j.ejmech.2018.12.027 (National Taiwan University, 2019)

Assay: Inhibition of influenza A virus (A/WSN/1933(H1N1)) neuraminidase using MUNANA as fluorogenic substrate preincubated for 10 mins followed by substrate addition and measured after 15 mins by fluorometric assay
Compound `CCC(CC)O[C@@H]1C=C(S(=O)(=O)O)C[C@H](NC(=N)N)[C@H]1NC(C)=O` has an IC50 of 1.3 nM. In the case of `CCC(CC)O[C@@H]1C=C([B-](F)(F)F)C[C@H](NC(=N)N)[C@H]1NC(C)=O`, the IC50 is reported as 20 nM. Work on `CCC(CC)O[C@@H]1C=C([B-](F)(F)F)C[C@H](N)[C@H]1NC(C)=O` yielded an IC50 of 3400 nM. `CCCCOS(=O)(=O)C1=C[C@@H](OC(CC)CC)[C@H](NC(C)=O)[C@@H](N)C1` showed an IC50 of 27 nM. For `CCC(CC)O[C@@H]1C=C(S(=O)(=O)O)C[C@H](N)[C@H]1NC(C)=O`, the IC50 was 1.8 nM. Work on `CCC(CC)O[C@@H]1C=C(S(=O)(=O)CCc2ccncc2)C[C@H](N)[C@H]1NC(C)=O` yielded an IC50 of 330 nM. In the case of `CCC(CC)O[C@@H]1C=C(S(C)(=O)=O)C[C@H](N)[C@H]1NC(C)=O`, the IC50 is reported as 180 nM. `CCC(CC)O[C@@H]1C=C(S(=O)(=O)CCc2ccncc2)C[C@H](NC(=N)N)[C@H]1NC(C)=O` showed an IC50 of 9.8 nM. Compound `CCC(CC)O[C@@H]1C=C(B(O)O)C[C@H](NC(=N)N)[C@H]1NC(C)=O` has an IC50 of 28 nM. With `CCCCOS(=O)(=O)C1=C[C@@H](OC(CC)CC)[C@H](NC(C)=O)[C@@H](NC(=N)N)C1` the IC50 was 3.3 nM.
